Reference: patent US11970474B2, “Substituted benzodiazoles and use thereof in therapy” (THOMAS HELLEDAYS STIFTELSE FÖR MEDICINSK FORSKNING, priority 2018, dated 2024)

Molecular target: OGG1 (Homo sapiens (Human), UniProt O15527)
Experiment: In vitro OGG1 activity assay
Type: biochemical
Settings: 800 pM OGG1 enzyme, 2 nM human APEX1, 10 nM 8-oxoA:C substrate
In short: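 Read-out is fluorescein fluorescence, with compounds in DMSO added first, then enzyme and substrate. OGG1 excises its substrate base from a quenched fluorophore-labelled duplex, and surplus APEX1 cuts the resulting apurinic site. The duplex then melts and fluorescence rises in proportion to glycosylase activity.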

Sequence of OGG1 (O15527 whole entry): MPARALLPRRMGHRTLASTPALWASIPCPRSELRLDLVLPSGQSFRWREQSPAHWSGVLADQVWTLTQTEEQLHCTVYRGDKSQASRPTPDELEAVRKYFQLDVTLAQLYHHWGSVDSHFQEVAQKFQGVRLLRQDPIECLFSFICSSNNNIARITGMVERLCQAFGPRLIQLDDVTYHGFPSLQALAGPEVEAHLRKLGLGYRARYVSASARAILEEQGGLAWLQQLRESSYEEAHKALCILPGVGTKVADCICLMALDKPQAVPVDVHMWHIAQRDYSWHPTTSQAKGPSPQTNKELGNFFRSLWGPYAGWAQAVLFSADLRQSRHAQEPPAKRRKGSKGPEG

Row | SMILES | IC50 [nM]
1 | Cc1cc(NC(=O)[C@H]2CC[C@@H](n3c(=O)[nH]c4ccc(F)cc43)CC2)ccc1O [Example 220, Cis-4-(6-fluoro-2-oxo-2,3-dihydro-1H-1,3-benzodiazol-1-yl)-N-(4-hydroxy-3-methylphenyl)cyclohexane-1-carboxamide] | 8630
2 | Cc1ccc(NC(=O)[C@H]2CC[C@@H](n3c(=O)[nH]c4c(Br)cccc43)CC2)c(O)c1 [Example 222, Cis-4-(4-bromo-2-oxo-2,3-dihydro-1H-1,3-benzodiazol-1-yl)-N-(2-hydroxy-4-methylphenyl)cyclohexane-1-carboxamide] | 350
3 | Cc1cc(N)c(NC(=O)[C@H]2CC[C@@H](n3c(=O)[nH]c4c(Br)cccc43)CC2)cc1C [Example 223, Cis-N-(2-amino-4,5-dimethylphenyl)-4-(4-bromo-2-oxo-2,3-dihydro-1H-1,3-benzodiazol-1-yl)cyclohexane-1-carboxamide] | 1670
4 | NC(=O)c1ccc(NC(=O)[C@H]2CC[C@@H](n3c(=O)[nH]c4c(Br)cccc43)CC2)cc1 [Example 224, 4-[cis-4-(4-bromo-2-oxo-2,3-dihydro-1H-1,3-benzodiazol-1-yl)cyclohexaneamido]benzamide] | 3660
5 | O=c1[nH]c2c(Br)cccc2n1[C@H]1CC[C@@H](C(=O)Nc2cccc(CO)c2)CC1 [Example 231, Cis-4-(4-bromo-2-oxo-2,3-dihydro-1H-1,3-benzodiazol-1-yl)-N-[3-(hydroxymethyl)phenyl]cyclohexane-1-carboxamide] | 8050
6 | COc1cc(NC(=O)[C@H]2CC[C@@H](n3c(=O)[nH]c4ncccc43)CC2)ccc1C [Example 232, Cis-N-(3-methoxy-4-methylphenyl)-4-{2-oxo-1H,2H,3H-imidazo[4,5-b]pyridin-1-yl}cyclohexane-1-carboxamide] | 109
7 | COc1ccc(NC(=O)[C@H]2CC[C@@H](n3c(=O)[nH]c4ncccc43)CC2)cc1C [Example 233, Cis-N-(4-methoxy-3-methylphenyl)-4-{2-oxo-1H,2H,3H-imidazo[4,5-b]pyridin-1-yl}cyclohexane-1-carboxamide] | 47.6
8 | COc1ccc(NC(=O)[C@H]2CC[C@@H](n3c(=O)[nH]c4ncccc43)CC2)cc1 [Example 234, Cis-N-(4-methoxyphenyl)-4-{2-oxo-1H,2H,3H-imidazo[4,5-b]pyridin-1-yl}cyclohexane-1-carboxamide] | 572
9 | COc1ncc(NC(=O)[C@H]2CC[C@@H](n3c(=O)[nH]c4ncccc43)CC2)cc1C [Example 235, Cis-N-(6-methoxy-5-methylpyridin-3-yl)-4-{2-oxo-1H,2H,3H-imidazo[4,5-b]pyridin-1-yl}cyclohexane-1-carboxamide] | 1450
10 | COc1cc(NC(=O)[C@H]2CC[C@@H](n3c(=O)[nH]c4cnccc43)CC2)ccc1C [Example 236, Cis-N-(3-methoxy-4-methylphenyl)-4-{2-oxo-1H,2H,3H-imidazo[4,5-c]pyridin-1-yl}cyclohexane-1-carboxamide] | 196
11 | COc1cc(NC(=O)[C@H]2CC[C@@H](n3c(=O)[nH]c4c(S(=O)(=O)CC(=O)O)cccc43)CC2)ccc1C [Example 239, 2-({2-Oxo-1-[cis-4-[(3-methoxy-4-methylphenyl)carbamoyl]cyclohexyl]-2,3-dihydro-1H-1,3-benzodiazol-4-yl}sulfonyl)acetic acid] | 50.6
12 | COc1cc(NC(=O)[C@H]2CC[C@@H](n3c(=O)[nH]c4c(N5CCOCC5)cccc43)CC2)ccc1C [Example 241, Cis-N-(3-methoxy-4-methylphenyl)-4-[4-(morpholin-4-yl)-2-oxo-2,3-dihydro-1H-1,3-benzodiazol-1-yl]cyclohexane-1-carboxamide] | 960
13 | COc1cc(NC(=O)[C@H]2CC[C@@H](n3c(=O)[nH]c4c(OCC(=O)O)cccc43)CC2)ccc1C [Example 242, 2-({2-Oxo-1-[cis-4-[(3-methoxy-4-methylphenyl)carbamoyl]cyclohexyl]-2,3-dihydro-1H-1,3-benzodiazol-4-yl}oxy)acetic acid] | 126
14 | COCCOc1cccc2c1[nH]c(=O)n2[C@H]1CC[C@@H](C(=O)Nc2ccc3cc[nH]c3c2)CC1 [Example 246, Cis-N-(1H-indol-6-yl)-4-[4-(2-methoxyethoxy)-2-oxo-2,3-dihydro-1H-1,3-benzodiazol-1-yl]cyclohexane-1-carboxamide] | 3630
15 | COc1cc(NC(=O)[C@H]2CC[C@@H](n3c(=O)[nH]c4c(C(=O)NCCN)cccc43)CC2)ccc1C [Example 247, N-(2-Aminoethyl)-2-oxo-1-[cis-4-[(3-methoxy-4-methylphenyl)carbamoyl]cyclohexyl]-2,3-dihydro-1H-1,3-benzodiazole-4-carboxamide] | 0.62
16 | COc1cc(NC(=O)[C@H]2CC[C@@H](n3c(=O)[nH]c4c(C(=O)NCC(O)CO)cccc43)CC2)ccc1C (stereo partly drawn) [Example 248, N-(2,3-Dihydroxypropyl)-2-oxo-1-[cis-4-[(3-methoxy-4-methylphenyl)carbamoyl]cyclohexyl]-2,3-dihydro-1H-1,3-benzodiazole-4-carboxamide] | 6.77
17 | COc1cc(NC(=O)[C@H]2CC[C@@H](n3c(=O)[nH]c4c(C(=O)NCCNS(C)(=O)=O)cccc43)CC2)ccc1C [Example 251, N-(2-Methanesulfonamidoethyl)-2-oxo-1-[cis-4-[(3-methoxy-4-methylphenyl)carbamoyl]cyclohexyl]-2,3-dihydro-1H-1,3-benzodiazole-4-carboxamide] | 4.25
18 | COc1cc(NC(=O)[C@H]2CC[C@@H](n3c(=O)[nH]c4c(C(=O)NCCN5CCNCC5)cccc43)CC2)ccc1C [Example 252, 2-Oxo-N-[2-(piperazin-1-yl)ethyl]-1-[cis-4-[(3-methoxy-4-methylphenyl)carbamoyl]cyclohexyl]-2,3-dihydro-1H-1,3-benzodiazole-4-carboxamide] | 3.94
19 | COc1cc(NC(=O)[C@H]2CC[C@@H](n3c(=O)[nH]c4c(C(=O)NCCNC(C)=O)cccc43)CC2)ccc1C [Example 253, Cis-4-{4-[(2-acetamidoethyl)carbamoyl]-2-oxo-2,3-dihydro-1H-1,3-benzodiazol-1-yl}-N-(3-methoxy-4-methylphenyl)cyclohexane-1-carboxamide] | 6.79
20 | COc1cc(NC(=O)[C@H]2CC[C@@H](n3c(=O)[nH]c4c(C(=O)NCC5CCCN5)cccc43)CC2)ccc1C (stereo partly drawn) [Example 254, 2-Oxo-N-[(pyrrolidin-2-yl)methyl]-1-[cis-4-[(3-methoxy-4-methylphenyl)carbamoyl]cyclohexyl]-2,3-dihydro-1H-1,3-benzodiazole-4-carboxamide] | 0.21
21 | COc1cc(NC(=O)[C@H]2CC[C@@H](n3c(=O)[nH]c4c(NC(=O)CN)cccc43)CC2)ccc1C [Example 255, Cis-4-[4-(2-aminoacetamido)-2-oxo-2,3-dihydro-1H-1,3-benzodiazol-1-yl]-N-(3-methoxy-4-methylphenyl)cyclohexane-1-carboxamide] | 30.9
22 | COc1cc(NC(=O)[C@H]2CC[C@@H](n3c(=O)[nH]c4cc(CN)ccc43)CC2)ccc1C [Example 256, Cis-4-[5-(aminomethyl)-2-oxo-2,3-dihydro-1H-1,3-benzodiazol-1-yl]-N-(3-methoxy-4-methylphenyl)cyclohexane-1-carboxamide] | 2690
